# Experimental data: patent publication US11643385B2, “Polymorphic forms of RAD1901-2HCl” (RADIUS PHARMACEUTICALS, INC., priority 2018, dated 2023)
# “Also recorded” adds a separate entry of the source. Like-named read-outs stand apart in the source and are kept apart here. Marks after values point to notes of the source that are not given here.
# How the values were obtained:
# [1] = Solubility assessment and polymorph screen on amorphous RAD1901-2HCl; format: physicochemical; details: for XRPD post 50° C./RT (form): after maturation at 50° C./RT; for Solubility observation at 10 vol.: amorphous RAD1901-2HCl, 10 vol. solvent (solvent per sample ID)
# Experimental: In a scale-up preparation of amorphous RAD1901-2HCl, RAD1901-2HCl (600 mg) was dissolved in water (20 vol., 12 mL) and filtered to remove any remaining solid particles. The solution was then aliquoted into 24 HPLC vials, frozen in a dry ice/acetone bath and the solvent removed by lyophilisation. Solids produced by lyophilization were used directly in solubility assessment and polymorph screens in Example 4.
# Amorphous RAD1901-2HCl prepared as described in Example 3B was used directly in solubility assessment and polymorph screens (Table 15). XRPD patterns were further obtained for amorphous RAD1901-2HCl prepared using other solvents.
# In the polymorph screen of the amorphous RAD1901-2HCl prepared as described in Example 3B, an aliquot of each sample was examined for its morphology under the microscope, both after maturing at 25° C., and after maturing at 50° C./RT. […] In some instances, the sample appeared to be a mixture of various polymorphic forms, e.g. Form 2 and Form 3 (FIGS. 18B-18C), similar to the mixture of Forms 2 and 3 in Sample 2 having an equilibrium between the two solid forms, depending on the prevailing RH.
# [2] = Solubility assessment and polymorph screen on Sample 1 (Form 1) of RAD1901-2HCl in 24 solvent systems; format: physicochemical; details: for Solubility observation at 10 vol.: 25 mg Sample 1, 10 vol. solvent (solvent per sample ID), stirred 25° C., shaken 50° C.; for Solubility observation at 20 vol.: 20 vol. solvent (solvent per sample ID); for Observation after Cooled to 5° C.: clear solutions cooled 50° C. to 5° C. at 0.1° C./min; for Observation after Evaporation: slow evaporation at ambient conditions; for XRPD of recovered solid (form): solid recovered after maturation, cooling or evaporation; for Solubility observation at 40 vol.: 40 vol. solvent (solvent per sample ID); for Solubility observation at 60 vol.: 60 vol. solvent (solvent per sample ID)
# Experimental: Solubility assessment was carried out on the Sample 1 of RAD1901-2HCl (majorly Form 1 shown by XRPD) in 24 solvent systems in HPLC vials (sample IDs: A1 to A24). RAD1901-2HCl (25 mg) was treated with increasing volumes of solvent until the material fully dissolved or until a maximum of 60 vol had been used (Table 13).
# After each addition of solvent, the system was stirred for 5 to 10 minutes at 25° C., then shaken at 50° C. for 5 to 10 minutes, and observations made. Samples were allowed to stand at room temperature for 5 min before the addition of a new aliquot of solvent. After the assessment was completed, the suspensions obtained were matured (maturation) and the clear solutions were cooled (cooling) and slowly evaporated (evaporation) as described below. All solids recovered from maturation, cooling and evaporation experiments were analyzed by high resolution XRPD.
# The suspensions obtained during the solubility assessment were matured by shaken in a maturation chamber between 50° C. and RT (8 hr per cycle) for up to 5 days. Then the mixture was allowed to stand at room temperature for 10 minutes. The resulting solids were filtered and air dried and analyzed by XRPD. The clear solutions obtained during maturation were evaporated in ambient conditions and the resulting residues were analyzed by XRPD.
# The clear solutions obtained during the course of the solubility assessment were cooled on a Polar Bear device from 50° C. to 5° C. at 0.1° C./min. Solids obtained upon cooling were recovered from the vials, air dried and analyzed by XRPD. If no solid was obtained, the solutions were evaporated slowly through a needle inserted into the septum cap of the vial until a solid appeared at ambient conditions and the resulting solids were filtered, air dried and analyzed by XRPD.
Compound,Solubility observation at 10 vol. [2],Solubility observation at 20 vol. [2],XRPD of recovered solid (form) [2],Solubility observation at 40 vol. [2],Solubility observation at 60 vol. [2],other results
CCNCCc1ccc(CN(CC)c2cc(OC)ccc2[C@@H]2CCc3cc(O)ccc3C2)cc1.Cl.Cl [Form B2.],,,,,,XRPD post 50° C./RT (form) [1]: Form 2/3
CCNCCc1ccc(CN(CC)c2cc(OC)ccc2[C@@H]2CCc3cc(O)ccc3C2)cc1.Cl.Cl [Form A12],+/− (+/− = nearly dissolved),S (S = solution),Form 3,,,Observation after Cooled to 5° C. [2]: S; Observation after Evaporation [2]: Solid
CCNCCc1ccc(CN(CC)c2cc(OC)ccc2[C@@H]2CCc3cc(O)ccc3C2)cc1.Cl.Cl [Form A23],X (X = suspension),X (X = suspension),Form 3,+/− (+/− = nearly dissolved),S (S = solution),"Observation after Cooled to 5° C. [2]: S; Observation after Evaporation [2]: Solids,"
CCNCCc1ccc(CN(CC)c2cc(OC)ccc2[C@@H]2CCc3cc(O)ccc3C2)cc1.Cl.Cl [Form A22],+/− (+/− = nearly dissolved),S (S = solution),Form 3*,,,Observation after Cooled to 5° C. [2]: Some
CCNCCc1ccc(CN(CC)c2cc(OC)ccc2[C@@H]2CCc3cc(O)ccc3C2)cc1.Cl.Cl [Form B7.],,,,,,XRPD post 50° C./RT (form) [1]: Form 1^+; Solubility observation at 10 vol. [1]: X (X = suspension)
CCNCCc1ccc(CN(CC)c2cc(OC)ccc2[C@@H]2CCc3cc(O)ccc3C2)cc1.Cl.Cl [Form A4],X (X = suspension),X (X = suspension),Form 1,X (X = suspension),X (X = suspension),
CCNCCc1ccc(CN(CC)c2cc(OC)ccc2[C@@H]2CCc3cc(O)ccc3C2)cc1.Cl.Cl [Form B23.],,,,,,XRPD post 25° C. (form) ([1]; after maturation at 25° C.): Form 3; XRPD post 50° C./RT (form) [1]: Form 3; Solubility observation at 10 vol. [1]: X (X = suspension); Observation After maturation at 50° C. ([1]; maturation at 50° C./RT): Fine
CCNCCc1ccc(CN(CC)c2cc(OC)ccc2[C@@H]2CCc3cc(O)ccc3C2)cc1.Cl.Cl [Form A13],X (X = suspension),X (X = suspension),Form 1,X (X = suspension),X (X = suspension),
CCNCCc1ccc(CN(CC)c2cc(OC)ccc2[C@@H]2CCc3cc(O)ccc3C2)cc1.Cl.Cl [Form A8],X (X = suspension),X (X = suspension),Form 1,X (X = suspension),X (X = suspension),
CCNCCc1ccc(CN(CC)c2cc(OC)ccc2[C@@H]2CCc3cc(O)ccc3C2)cc1.Cl.Cl [Form A10],X (X = suspension),X (X = suspension),Form 1,X (X = suspension),X (X = suspension),
CCNCCc1ccc(CN(CC)c2cc(OC)ccc2[C@@H]2CCc3cc(O)ccc3C2)cc1.Cl.Cl [Form B17.],,,,,,Observation After maturation at 50° C. [1]: Fine; XRPD post 50° C./RT (form) [1]: Form 1*
CCNCCc1ccc(CN(CC)c2cc(OC)ccc2[C@@H]2CCc3cc(O)ccc3C2)cc1.Cl.Cl [Form A21],,,,,,Observation After 50/RT maturation ([2]; 50° C./RT cycles (8 hr per cycle) up to 5 days): S
CCNCCc1ccc(CN(CC)c2cc(OC)ccc2[C@@H]2CCc3cc(O)ccc3C2)cc1.Cl.Cl [Form A20],+/− (+/− = nearly dissolved),S (S = solution),Pattern 3; also recorded: Form 3,,,Observation after Cooled to 5° C. [2]: Platelet
CCNCCc1ccc(CN(CC)c2cc(OC)ccc2[C@@H]2CCc3cc(O)ccc3C2)cc1.Cl.Cl [Form A24],X (X = suspension),X (X = suspension),Form 3,+/− (+/− = nearly dissolved),S (S = solution),Observation after Cooled to 5° C. [2]: S; Observation after Evaporation [2]: Solids
CCNCCc1ccc(CN(CC)c2cc(OC)ccc2[C@@H]2CCc3cc(O)ccc3C2)cc1.Cl.Cl [Form A7],X (X = suspension),X (X = suspension),Form 1*,X (X = suspension),X (X = suspension),
CCNCCc1ccc(CN(CC)c2cc(OC)ccc2[C@@H]2CCc3cc(O)ccc3C2)cc1.Cl.Cl [Form A5],X (X = suspension),X (X = suspension),Form 1,X (X = suspension),X (X = suspension),
CCNCCc1ccc(CN(CC)c2cc(OC)ccc2[C@@H]2CCc3cc(O)ccc3C2)cc1.Cl.Cl [Form A6],X (X = suspension),X (X = suspension),Form 3*,X (X = suspension),X (X = suspension),
CCNCCc1ccc(CN(CC)c2cc(OC)ccc2[C@@H]2CCc3cc(O)ccc3C2)cc1.Cl.Cl [Form A11],S (S = solution),,,,,Observation after Cooled to 5° C. [2]: S; Observation after Evaporation [2]: S
CCNCCc1ccc(CN(CC)c2cc(OC)ccc2[C@@H]2CCc3cc(O)ccc3C2)cc1.Cl.Cl [Form A14],X (X = suspension),X (X = suspension),Form 1,X (X = suspension),X (X = suspension),
CCNCCc1ccc(CN(CC)c2cc(OC)ccc2[C@@H]2CCc3cc(O)ccc3C2)cc1.Cl.Cl [Form A19],X (X = suspension),X (X = suspension),Form 1,X (X = suspension),X (X = suspension),
CCNCCc1ccc(CN(CC)c2cc(OC)ccc2[C@@H]2CCc3cc(O)ccc3C2)cc1.Cl.Cl [Form A1],X (X = suspension),X (X = suspension),Form 1,X (X = suspension),X (X = suspension),
CCNCCc1ccc(CN(CC)c2cc(OC)ccc2[C@@H]2CCc3cc(O)ccc3C2)cc1.Cl.Cl [Form A2],X (X = suspension),X (X = suspension),Form 1,X (X = suspension),X (X = suspension),
CCNCCc1ccc(CN(CC)c2cc(OC)ccc2[C@@H]2CCc3cc(O)ccc3C2)cc1.Cl.Cl [Form A3],X (X = suspension),X (X = suspension),Form 1,X (X = suspension),X (X = suspension),
CCNCCc1ccc(CN(CC)c2cc(OC)ccc2[C@@H]2CCc3cc(O)ccc3C2)cc1.Cl.Cl [Form A15],X (X = suspension),X (X = suspension),Form 1,X (X = suspension),X (X = suspension),
CCNCCc1ccc(CN(CC)c2cc(OC)ccc2[C@@H]2CCc3cc(O)ccc3C2)cc1.Cl.Cl [Form A17],X (X = suspension),X (X = suspension),Form 1,X (X = suspension),X (X = suspension),
